Source: article PMC11762167, “G Protein-Coupled Receptor 17 Inhibits Glucagon-like Peptide-1 Secretion via a Gi/o-Dependent Mechanism in Enteroendocrine Cells” (Biomolecules, 2024)

Legend:
[1] = target: T1, hGPR17S (Homo sapiens, UniProt Q13304); assay: Calcium mobilization in HEK293 cells transfected with hGPR17S; format: cell-based
T1 construct: host or cells: HEK293 cells (ATCC CRL-1573), transient transfection
Procedure: HEK293 cells were maintained and transfected as previously described.
Calcium flux in HEK293 cells was measured as previously described.

[2] = target: T1, hGPR17S; assay: Membrane β-arrestin recruitment in HEK293 cells transfected with hGPR17S; format: cell-based
Procedure: (§1) Membrane β-arrestin recruitment measurements were conducted using a luminescent membrane β-arrestin recruitment reporter assay. HEK293 cells were seeded into white, opaque, poly-D-lysine-coated 96-well plates and transiently transfected using Lipofectamine 3000 (Thermo Fisher Scientific, Waltham, MA, USA) according to the manufacturer’s protocol on the following day. At 48 h post-transfection, cells were washed twice with assay buffer (HBSS, 20 mM HEPES, pH 7.4) and allowed to equilibrate to room temperature for 15 min in assay buffer. Cells were then loaded with coelenterazine h (Nanolight Technology, Prolume Ltd., Lakeside, AZ, USA; 5 µM final concentration) for 5 min in the dark. Luminescence was read using a SpectraMax iD3 (Molecular Devices) with 1 s integration time. Baseline luminescence was read every 2 min for 6 min. Agonist was added and then luminescence was read every 2 min for 30 min.

[3] = target: T2, hGPR17L (Homo sapiens, UniProt Q13304); assay: Calcium flux (Calcium 6) in GLUTag cells expressing hGPR17L; format: cell-based; design: host or cells: GLUTag cells (murine enteroendocrine line), adenoviral transduction; Mean Diff. Ctl vs. hGPR17L: unit not given here; details: for Mean Diff.: hGPR17L; for Mean Diff. (Tukey's multiple comparisons test, Figure 4C): hGPR17L-WT
Procedure: (§2) GLUTag cells were maintained in Dulbecco’s Modified Eagle Medium (DMEM) supplemented with 10% fetal bovine serum and 1% penicillin–streptomycin in a humidified incubator at 37 °C and 5% CO2. For adenovirus transduction, GLUTag cells were seeded into poly-D-lysine coated 96-well plates or 4-chamber slides. The next day, cells were transduced with adenoviruses (100–1250 viral particles per cell at time of seeding) as indicated. After 24–30 h, adenovirus-containing media was changed to serum-free growth media for overnight serum starvation. The following day, GLUTag cells were used for cAMP or calcium signaling assays, GLP-1 secretion assays, or immunostaining and imaging.
(§3) GLUTag cells were seeded into black, clear bottom, poly-D-lysine-coated 96-well plates. Cells were transduced and serum starved as specified above. Growth medium was then replaced with 100 μL/well assay buffer (HBSS, 20 mM HEPES, pH 7.4) and 100 μL/well Calcium 6 loading dye (R8190; Molecular Devices, San Jose, CA, USA). During dye loading, cells were incubated at 37 °C and 5% CO2 for 2 h. MDL29,951 or KCl was added to the wells and fluorescence (485 nm excitation, 525 nm emission, and 515 nm automatic emission cutoff) was measured using a Molecular Devices FlexStation3 (Molecular Devices) at 37 °C. For experiments with PTX, cells were pretreated with 100 ng/mL PTX overnight and 100 ng/mL PTX was included with Calcium 6 loading dye for calcium flux assays. For experiments with YM-254890, cells were pretreated for 30 min at 37 °C.

[4] = test system: GLUTag cells; assay: GLP-1 secretion from control-transduced or untransduced GLUTag cells; format: cell-based, murine
Procedure: as §2
GLUTag cells were seeded into poly-D-lysine-coated 96-well plates and transduced with adenovirus as specified above and then tested for GLP-1 secretion. Medium was removed and cells were washed two times with GLP-1 secretion buffer (138 mM NaCl, 4.5 mM KCl, 4.2 mM NaHCO3, 2.5 mM CaCl2, 1.2 mM MgCl2, 10 mM HEPES, 1 mM glucose, and 0.1% bovine serum albumin, pH 7.4). Cells were stimulated for 2 h with indicated treatments diluted in GLP-1 secretion buffer for a total volume of 200 µL/well at 37 °C and 5% CO2. Plates were then centrifuged at 300× g for 1 min at 4 °C, and 75 µL of the supernatant was removed and frozen at −80 °C until subsequent GLP-1 quantification. Total GLP-1 was quantified using the Meso Scale Discovery Total GLP-1 V-PLEX kit (Rockville, MD, USA; K1503PD) according to manufacturer’s instructions. For PTX treatment conditions, cells were pretreated with 100 ng/mL PTX overnight. For experiments with YM-254890, cells were pretreated for 15 min at 37 °C and 5% CO2.

[5] = target: T2, hGPR17L; assay: Membrane β-arrestin recruitment in HEK293 cells transfected with hGPR17L; format: cell-based
Procedure: as §1

[6] = target: mGPR17 (Mus musculus, UniProt Q6NS65); assay: Calcium flux in GLUTag cells expressing mGPR17; format: cell-based; design: host or cells: GLUTag cells, adenoviral transduction; details: for Mean Diff. (Tukey's multiple comparisons test, Figure 4C): mGPR17
Procedure: as §2, §3

[7] = read-out: β-arrestin Potency EC50
[8] = log [MDL29,951] (M) -4.5 vs. Vehicle
[9] = log [MDL29,951] (M) -5.0 vs. Vehicle
[10] = log [MDL29,951] (M) -5.5 vs. Vehicle
[11] = log [MDL29,951] (M) -6.0 vs. Vehicle
[12] = log [MDL29,951] (M) -6.4 vs. Vehicle
[13] = log [MDL29,951] (M) -6.9 vs. Vehicle
[14] = log [MDL29,951] (M) -7.4 vs. Vehicle
[15] = log [MDL29,951] (M) -7.9 vs. Vehicle
[16] = log [MDL29,951] (M) -8.3 vs. Vehicle
[17] = log [MDL29,951] (M) -8.8 vs. Vehicle

T1 sequence (Q13304 29-367): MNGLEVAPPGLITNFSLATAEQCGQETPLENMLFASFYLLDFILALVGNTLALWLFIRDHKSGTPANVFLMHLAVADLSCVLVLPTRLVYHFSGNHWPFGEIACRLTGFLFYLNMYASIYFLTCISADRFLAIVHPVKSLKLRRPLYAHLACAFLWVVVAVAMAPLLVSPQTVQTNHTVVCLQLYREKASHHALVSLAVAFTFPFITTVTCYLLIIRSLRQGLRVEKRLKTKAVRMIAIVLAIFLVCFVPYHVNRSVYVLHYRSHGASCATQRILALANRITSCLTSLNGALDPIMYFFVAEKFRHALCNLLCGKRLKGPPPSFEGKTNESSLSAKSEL
T2 sequence (Q13304 whole entry): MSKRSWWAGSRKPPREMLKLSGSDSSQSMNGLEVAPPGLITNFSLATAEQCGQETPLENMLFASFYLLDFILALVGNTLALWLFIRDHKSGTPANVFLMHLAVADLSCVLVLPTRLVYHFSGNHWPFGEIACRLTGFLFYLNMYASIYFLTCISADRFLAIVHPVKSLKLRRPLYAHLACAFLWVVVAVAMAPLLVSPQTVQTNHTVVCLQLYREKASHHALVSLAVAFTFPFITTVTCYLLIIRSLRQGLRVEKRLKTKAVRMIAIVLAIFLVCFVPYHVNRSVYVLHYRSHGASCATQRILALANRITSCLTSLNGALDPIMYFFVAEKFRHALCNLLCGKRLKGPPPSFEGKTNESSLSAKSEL
Sequence of mGPR17 (Q6NS65 whole entry): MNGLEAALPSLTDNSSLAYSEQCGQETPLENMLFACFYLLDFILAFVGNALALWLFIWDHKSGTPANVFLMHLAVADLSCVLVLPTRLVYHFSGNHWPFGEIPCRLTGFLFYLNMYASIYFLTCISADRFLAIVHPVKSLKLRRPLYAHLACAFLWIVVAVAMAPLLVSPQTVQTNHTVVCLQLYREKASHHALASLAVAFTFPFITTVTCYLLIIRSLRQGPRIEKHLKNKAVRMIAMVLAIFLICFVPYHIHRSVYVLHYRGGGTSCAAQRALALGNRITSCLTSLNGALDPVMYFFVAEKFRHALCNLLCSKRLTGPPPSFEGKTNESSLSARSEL

## O=C(O)CCc1c(C(=O)O)[nH]c2cc(Cl)cc(Cl)c12 [MDL29,951]
[1]
  Calcium Emax (Mean Peak ΔF/F): 1.84±0.11
  Calcium Potency (pEC50): 7.37±0.10
[1]; read-out: Calcium Potency EC50
  EC50: 43 nM
[2]
  β-arrestin Emax (Peak ΔRLU/RLU): 0.50±0.04
  β-arrestin Potency (pEC50): 6.62±0.08
[2]; [7]
  EC50: 240 nM
[3]; Figure 1B, Ctl vs. hGPR17L at log [MDL29,951] (M) -4.5
  Mean Diff. Ctl vs. hGPR17L: -0.777
[3]; Figure 1B, Ctl vs. hGPR17L at log [MDL29,951] (M) -5.0
  Mean Diff. Ctl vs. hGPR17L: -0.707
[3]; Figure 1B, Ctl vs. hGPR17L at log [MDL29,951] (M) -5.5
  Mean Diff. Ctl vs. hGPR17L: -0.62
[3]; Figure 1B, Ctl vs. hGPR17L at log [MDL29,951] (M) -6.0
  Mean Diff. Ctl vs. hGPR17L: -0.5407
[3]; Figure 1B, Ctl vs. hGPR17L at log [MDL29,951] (M) -6.4
  Mean Diff. Ctl vs. hGPR17L: -0.458
[3]; Figure 1B, Ctl vs. hGPR17L at log [MDL29,951] (M) -6.9
  Mean Diff. Ctl vs. hGPR17L: -0.31
[3]; Figure 1B, Ctl vs. hGPR17L at log [MDL29,951] (M) -7.4
  Mean Diff. Ctl vs. hGPR17L: -0.206
[3]; Figure 1B, Ctl vs. hGPR17L at log [MDL29,951] (M) -7.9
  Mean Diff. Ctl vs. hGPR17L: -0.06033
[3]; Figure 1B, Ctl vs. hGPR17L at log [MDL29,951] (M) -8.3
  Mean Diff. Ctl vs. hGPR17L: -0.009667
[3]; Figure 1B, Ctl vs. hGPR17L at log [MDL29,951] (M) -8.8
  Mean Diff. Ctl vs. hGPR17L: -0.002
[3]; Figure 1B, log [MDL29,951] (M) -4.5 vs. Vehicle
  Mean Diff.: 0.758
[3]; Figure 1B, log [MDL29,951] (M) -5.0 vs. Vehicle
  Mean Diff.: 0.6893
[3]; Figure 1B, log [MDL29,951] (M) -5.5 vs. Vehicle
  Mean Diff.: 0.6163
[3]; Figure 1B, log [MDL29,951] (M) -6.0 vs. Vehicle
  Mean Diff.: 0.538
[3]; Figure 1B, log [MDL29,951] (M) -6.4 vs. Vehicle
  Mean Diff.: 0.47
[3]; Figure 1B, log [MDL29,951] (M) -6.9 vs. Vehicle
  Mean Diff.: 0.3087
[3]; Figure 1B, log [MDL29,951] (M) -7.4 vs. Vehicle
  Mean Diff.: 0.2053
[3]; Figure 1B, log [MDL29,951] (M) -7.9 vs. Vehicle
  Mean Diff.: 0.06133
[3]; Figure 1B, log [MDL29,951] (M) -8.3 vs. Vehicle
  Mean Diff.: 0.004667
[3]; Figure 1B, log [MDL29,951] (M) -8.8 vs. Vehicle
  Mean Diff.: -0.001667
[3]; GLUTag hGPR17L, Figure 1B
  maximum peak ΔF/F, calcium flux: 0.80 ± 0.07
  pEC50, calcium flux: 6.66 ± 0.13
[3]; GLUTag hGPR17L, Figure 1B, read-out: potency (EC50), calcium flux
  EC50: 220 nM
[3]; PTX-treated versus vehicle-treated cells
  shift in the EC50 of MDL29,951, calcium mobilization: 3 fold
[3]; [8]
  Mean Diff. (Tukey's multiple comparisons test, Figure 4C): 100.4
[3]; [9]
  Mean Diff. (Tukey's multiple comparisons test, Figure 4C): 91.26
[3]; [10]
  Mean Diff. (Tukey's multiple comparisons test, Figure 4C): 81.52
[3]; [11]
  Mean Diff. (Tukey's multiple comparisons test, Figure 4C): 71.5
[3]; [12]
  Mean Diff. (Tukey's multiple comparisons test, Figure 4C): 61.96
[3]; [13]
  Mean Diff. (Tukey's multiple comparisons test, Figure 4C): 41.28
[3]; [14]
  Mean Diff. (Tukey's multiple comparisons test, Figure 4C): 27.22
[3]; [15]
  Mean Diff. (Tukey's multiple comparisons test, Figure 4C): 8.591
[3]; [16]
  Mean Diff. (Tukey's multiple comparisons test, Figure 4C): 0.737
[3]; [17]
  Mean Diff. (Tukey's multiple comparisons test, Figure 4C): -0.2507
[3]; vehicle-treated cells, Figure 2C
  pEC50, calcium mobilization: 6.34 ± 0.06
[3]; vehicle-treated cells, Figure 2C, read-out: EC50, calcium mobilization
  EC50: 440 nM
[4]; 100 nM MDL29,951, control-transduced cells
  effect on F/I-stimulated GLP-1 secretion: no effect
[4]; 100 nM or 100 µM MDL29,951, control-transduced
  effect on GLP-1 secretion under basal conditions: no effect
[4]; 100 µM MDL29,951, control adenovirus
  effect on F/I-stimulated GLP-1 secretion: no effect
[5]
  β-arrestin Emax (Peak ΔRLU/RLU): 0.50±0.03
  β-arrestin Potency (pEC50): 6.72±0.09
[5]; [7]
  EC50: 190 nM
[6]; GLUTag mGPR17
  maximal calcium stimulation, % of the hGPR17L-WT response: 74 ± 2.7%
  pEC50, calcium responses: 6.17 ± 0.04
[6]; GLUTag mGPR17, read-out: EC50, calcium responses
  EC50: 680 nM
[6]; [8]
  Mean Diff. (Tukey's multiple comparisons test, Figure 4C): 72.98
[6]; [9]
  Mean Diff. (Tukey's multiple comparisons test, Figure 4C): 62.99
[6]; [10]
  Mean Diff. (Tukey's multiple comparisons test, Figure 4C): 54.24
[6]; [11]
  Mean Diff. (Tukey's multiple comparisons test, Figure 4C): 47.28
[6]; [12]
  Mean Diff. (Tukey's multiple comparisons test, Figure 4C): 29.04
[6]; [13]
  Mean Diff. (Tukey's multiple comparisons test, Figure 4C): 21.01
[6]; [14]
  Mean Diff. (Tukey's multiple comparisons test, Figure 4C): 6.844
[6]; [15]
  Mean Diff. (Tukey's multiple comparisons test, Figure 4C): -0.1174
[6]; [16]
  Mean Diff. (Tukey's multiple comparisons test, Figure 4C): -1.354
[6]; [17]
  Mean Diff. (Tukey's multiple comparisons test, Figure 4C): -0.5799
